Results as given in patent publication US20110207694A1, “MAMMALIAN HYPOTHALAMIC NUTRIENT MODULATION OF GLUCOSE METABOLISM” (priority 2005, published 2011).
“Also recorded” adds a separate entry of the source.

Experiments:
hepatic VLDL secretion = assay: Lipoprotein (VLDL) secretion studies with tyloxapol; NMR particle size; type: in vivo, rat
Procedure: Lipoproteins secretion and particles concentration and size measurements. Tyloxapol (600 mg/kg; ˜1 min) was intravenously injected to inhibit endogenous lipoprotein lipase. This high dose of tyloxapol ensured complete inhibition of triglyceride clearance during VLDL secretion studies. Plasma samples were taken every 30 min for triglycerides analysis and for lipoprotein profiling. Plasma VLDL particles concentration and size were determined by nuclear magnetic resonance spectroscopy (lipoprofile-II test) at Liposcience as previously described (Otvos et al., 1991; 1992). This NMR lipoprofile-II test is based on the assumption that each plasma lipoprotein particle of a particular size gives its own characteristic lipid NMR signal. The intensity of the signal is also in proportion to the concentration of the particle. The diameter range for large, medium and small VLDL is >60 nm, 35-60 nm, and 27-35 nm, respectively.
Selective hepatic branch vagotomy. The surgeries were performed as described (Lam et al., 2005c).
(§1) Treatment with SCD1 ASO. Five and two days before the lipoprotein secretion studies, rats received a single intra-peritoneal injection of either SCD1 or scrambled (SCR) ASO (100 mg/kg of body weight). […] In a separate set of studies, rats received intra-portal injection of either SCD1 or SCR ASO (40 mg/kg of body weight) (Gutierrez-Juarez et al., 2006) three days before the lipoprotein secretion studies.
Portal oleate infusion. Chronic portal catheter was implanted and 7 days were allowed for rat recovery. Oleic acid (45 mM; dissolved in 45% HBP) was infused at a rate of 40 μl/h for 2.5 h (1 h before the 90 min lipoprotein secretion studies). This dose enabled the reconstitution of hepatic oleyl-CoA levels back to normal during portal SCD1 ASO (FIG. 11c) or ICV glucose studies (FIG. 11d).

[1] = test system: Stearoyl-CoA Desaturase 1 (SCD1); assay: Liver SCD1 activity, SCD1 mRNA and LCFA-CoA measurements; type: in vivo, rat
Procedure: as §1
Liver LCFA-CoA measurements. The liver was sampled and the LCFA-CoAs were extracted from the liver and measured by high-performance liquid chromatography (HPLC) as previously described (Lam et al., 2005c).
Stearoyl-CoA Desaturase 1 (SCD1) activity. CD1 activity assays were performed essentially as described (Cohen et al., 2002) using 1-[^14C]-stearoyl-CoA as a substrate. At the end of the reaction incubation long-chain acyl CoAs (LC Acyl-CoAs) were extracted and fractionated by reverse-phase HPLC as previously reported (Lam et al., 2005c). Chromatographically resolved stearoyl CoA (C18:0) and oleyl-CoA (C18:1) peaks were collected and counted in a β-scintillation counter. Protein was assayed by the bicinchoninic acid (BCA) method using a commercially available kit (Pierce Biotechnology, Rockford, Ill.) according to the manufacturer's instructions.
Gene expression. Stearoyl-CoA Desaturasel (SCD1) mRNA was measured by quantitative real-time PCR. Briefly, total RNA was extracted from either liver or fat tissue using the Trizol reagent (Invitrogen, Carlsbad, Calif.) according to the manufacturer instructions. cDNA was then synthesized from 2 μg of total RNA using the Superscript® III First-Strand kit TM? (Invitrogen, Carlsbad, Calif.). Samples of RNA in which the reverse transcriptase was omitted (no RT controls) were also included. The cDNA and no RT controls were diluted 1:20 with PCR grade water and 2 μl from each sample was used for PCR in a total volume of 20 μl. The FastStart DNA Master SYBR Green I kit (Roche Applied Science, Indianapolis, Ind.) and a LightCycler® 2 instrument (Roche Applied Science, Indianapolis, Ind.) were used in all experiments. Either 18S mRNA expression was routinely measured for normalization purposes. The primer sequences used were as follows: 5′-[…]-3′ and 5′-[…]-3′ for Scd1; and 5′-[…]-3′ and 5′-[…]-3′ for ribosomal 18S. The mRNA copy number was calculated from standard curves obtained using cloned target templates (plasmid DNA) of known copy number for each gene of interest.

male Sprague-Dawley rats = assay: ICV infusion: plasma triglycerides and metabolites under basal and pancreatic clamp conditions; type: in vivo, rat
Source text: Animal preparation. We studied 10-week-old male Sprague-Dawley rats. Rats underwent stereotaxic surgery to indwell single catheters in the third cerebral ventricle {intracerebroventricular (ICV)(Obici et al., 2001) or bilateral catheters into the mediobasal hypothalamus (Lam et al., 2005c). One week later, we placed indwelling catheters in the internal jugular vein and carotid artery for sampling and infusion during the in vivo experiments (Obici et al., 2001). Recovery from surgery was monitored by measuring daily food intake and weight gain for 4-5 days after surgery.
(§2) Infusion protocols. The in vivo infusion experiments lasted a total of 360 min, and the experiments were carried out in rats that had their food removed ˜5 h before the experiments. Thus, at the time of the experiment, the rats are in post-absorptive state since their stomach should be completely emptied by 5 h fasting. […] This ICV glucose protocol physiologically elevate hypothalamic glucose concentration by ˜70% as previously described (Lam et al., 2005b) and is similar to that induced by a doubling of the circulating glucose levels (Lam et al., 2005b). During the ICV infusions, we monitored the plasma metabolite levels under pre-infused (0 min), basal (180-240 min) and pancreatic clamp (300-360 min) conditions. […] A basal insulin-pancreatic clamp was performed in the final 2 h (240-360 min) of the study as previously described (Lam et al., 2005b). In brief, a continuous infusion of insulin (1 mU/kg.min) and somatostatin (3 μg/kg.min) was administered, and a variable infusion of a 25% glucose solution was started and periodically adjusted to clamp and maintain the plasma glucose concentration at ˜8 mM. […] To examine the time-dependent effects of ICY glucose on plasma triglycerides, ICY (5 μl/h) 2 mM D-glucose or mannitol was administrated for 210 min and plasma triglyceride levels were monitored at 0, 20, 60, 120, 180, 210 min. […] Plasma triglycerides were monitored under basal, pancreatic clamp and tyloxapol-treated conditions. At the end of the infusion experiments, rats were anesthetized and tissue samples were freeze-clamped in situ with aluminum tongs pre-cooled in liquid nitrogen. All tissue samples were stored at −80° C. for subsequent analysis.
Biochemical analyses. Plasma glucose concentrations were measured by the glucose oxidase method (Glucose Analyzer II, Beckman Instruments, Inc., Fullerton, Calif.). […] FFA concentrations were determined by an enzyme assay in accordance with the manufacturer's specifications (Waco Pure Chemical Industries. Osaka. Japan). Plasma insulin concentrations (with rat and porcine insulin standards) were measured by radioimmunoassay (RIA). Plasma adiponectin concentrations were measured by RIA (Linco Inc., Austin, Tex., USA). Liver triglycerides were measured as described (Muse et al., 2004).
Calculations. Statistical analysis was done by unpaired Student's t test or analysis of variance as appropriate. Data are presented as means±SEM. All values were collapsed into a single value for each animal prior to the calculation of mean. The time period 180-240 min was averaged for the basal and the time period 300-360 min was averaged for the clamp conditions.

conscious rats [2] = assay: ICV glucose or lactate infusion with pancreatic basal insulin clamp: plasma glucose and liver glucose production; type: in vivo, rat; conditions: for effect of ICV co-infused LDH inhibitor or KATP blocker on the effects of ICV glucose or lactate on plasma glucose and GP: ICV co-infusion
Source text: We hypothesize that the hypothalamic sensing of glucose-derived pyruvate is a novel regulator of endogenous glucose production (GP). […] We propose that an increase in neuronal pyruvate levels is a hypothalamic signal of nutrient availability.
Long chain fatty acids in the brain decrease glucose production (GP) by the liver via activation of hypothalamus ATP-sensitive (KATP) channels. Here we tested whether (A) direct administration of glucose in the third cerebral ventricle can alter glucose production by the liver, and (B) whether this effect requires its metabolism in the TCA cycle.

conscious rats [3] = assay: Circulating lactate infusion with central LDH inhibitor or KATP blocker: glucose kinetics during pancreatic clamps
mediobasal hypothalamus = assay: Intrahypothalamic (IH) infusion of glucose or DCA with pancreatic basal insulin clamp; type: in vivo, rat; conditions: IH, with glucose
Source text: FIG. 3 is a diagram of experimental protocols (Panel (a)) and graphs of results of those experiments utilizing intrahypothalamic (IH) infusions of glucose.
FIG. 4 is a schematic and graphs of experimental results showing the effect of dichloroacetate (DCA), an inhibitor of pyruvate dehydrogenase kinase, having the effect of activating pyruvate dehydrogenase (PDH). The schematic of Panel (a) illustrates the PDH activation effect of DCA in the context of glucose metabolism, the TCA cycle, and nervous system cells.
We have localized the effect of glucose on liver glucose production to the mediobasal hypothalamus. This was accomplished using bilateral intraparenchymal (rather than ICY) delivery of both glucose and the KATP blocker GLI.

conscious rats [4] = assay: Intravenous lactate infusion with or without MBH oxamate: plasma TG and hepatic TG-VLDL production; type: in vivo, rat; conditions: oxamate within the mediobasal hypothalamus prior to the i.v. lactate infusion
Procedure: as §2
VLDL are decreased in the hours following an acute bout of exercise. […] To investigate the mechanism by which lactate lowers plasma TG levels, the rate of production of hepatic TG-enriched VLDL was measured.

CCCCCCCC/C=C\CCCCCCCC(=O)O [oleic acid]
effect of portal oleic acid infusion on VLDL secretion (hepatic VLDL secretion; portal infusion during ICV glucose or SCD1 ASO): negates the effects of both central glucose and SCD1 deficiency on VLDL secretion; also recorded: sufficient to negate the effect of SCD1 deficiency on VLDL secretion | hepatic oleyl-CoA ([1]; portal infusion of oleic acid during ICV glucose or SCD1 deficiency): restores hepatic oleyl-CoA to control levels

COc1ccc(Cl)cc1C(=O)NCCc1ccc(S(=O)(=O)NC(=O)NC2CCCCC2)cc1 [glibenclamide, reference compound]
effect of ICV co-infused inhibitor on the plasma triglyceride-lowering effects of ICV glucose or lactate (male Sprague-Dawley rats; ICV co-infusion (oxamate 50 mM, glibenclamide 100 μM)): negated the effects of both ICV glucose and lactate on plasma triglycerides; also recorded: abolishes the plasma triglyceride-lowering effects of glucose; also recorded: abolished the plasma triglyceride-lowering effects of lactate | plasma triglyceride levels, inhibitor per se (male Sprague-Dawley rats; ICV inhibitor alone): did not per se alter the levels of plasma triglycerides | effect of ICV co-infused LDH inhibitor or KATP blocker on the effects of ICV glucose or lactate on plasma glucose and GP (conscious rats [2]): inhibited | effect of ICV co-infused LDH inhibitor or KATP blocker on the effects of ICV glucose or lactate on plasma glucose and GP (conscious rats [2]; listed as GLI): inhibited | effect of ICV co-infused LDH inhibitor or KATP blocker on the effects of ICV glucose or lactate on plasma glucose and GP (conscious rats [2]; listed as sulfonylurea): completely abolished the effects of ICV glucose and lactate on plasma glucose and GP | glucose infusion rate to maintain euglycemia (conscious rats [3]; ICV inhibitor infused with IV lactate): decreased glucose infusion rate | glucose production (conscious rats [3]; central inhibitor infused with circulating lactate infusion): increase in glucose production | effect of central co-infusion of inhibitor on suppression of VLDL-triglyceride secretion by ICV glucose (hepatic VLDL secretion; central co-infusion with glucose): abolished | effect of KATP blocker on the effects of IH glucose (mediobasal hypothalamus): prevented | effect of ICV co-infused inhibitor on the decrease of hepatic SCD1 mRNA and activity by ICV glucose ([1]; ICV co-infusion with glucose): abolished

NC(=O)C(=O)O [oxamate, reference compound]
GP (glucose production) (conscious rats [2]; ICV oxamate (50 mM) with ICV glucose): 11.9 ± 1.0 mg/kg/min | GP (glucose production) (conscious rats [2]; ICV oxamate with ICV lactate): 11.3 ± 0.6 mg/kg/min | plasma glucose (conscious rats [2]; ICV oxamate with ICV lactate): 144 ± 1 mg/dL | hepatic TG-enriched VLDL production (conscious rats [4]): 0.056 ± 0.002 mM/min | plasma TG levels (conscious rats [4]): 0.44 ± 0.12 mM
